This is an account of results in patent publication EP4786487A1, “PEPTIDE” (Peptidream Inc, priority 2023, dated 2025).

The target in one experiment is T1, activin A (Homo sapiens, UniProt P08476).
T1 construct: purchased R&D systems 338-AC-010/CF
T1 sequence (P08476 311-426): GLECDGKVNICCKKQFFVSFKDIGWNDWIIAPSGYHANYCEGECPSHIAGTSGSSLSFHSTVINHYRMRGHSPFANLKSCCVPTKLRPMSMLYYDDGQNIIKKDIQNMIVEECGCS
The experiment is described as follows: Reporter gene assay for myostatin signaling in HEK-Blue TGF-β Cells, activin A. As to conditions: activin A 3 ng/mL. The class given is cell-based. Here is the method: In this Example, the in vitro activity of the peptide Myostatin_99_v145 (SEQ ID NO: 30) was evaluated using a reporter gene assay for myostatin signaling.
HEK-Blue (trademark) TGF-β Cells (hkb-tgfbv2, InvivoGen) were cultured in DMEM High glucose GlutaMAX (10569010, Thermo) containing 10% FBS (Heat-inactivated FBS QUALIFIED, 10270-106, Gibco), […] Normocin (ant-nr-05, InvivoGen), […] Zeocin (ant-zn-05, InvivoGen), and 50 µg/mL Gentamicin (11980-14, Nacalai Tesque). The cultured HEK-Blue (trademark) TGF-β Cells were suspended in an assay medium containing DMEM High glucose GlutaMAX, 50 µg/mL Gentamicin, and 1% bovine serum albumin (A7030, Sigma). The cells were seeded at 4 × 10^4 cells/well onto a 96-well plate (356461, Corning), namely BioCoat poly-D-lysine multi-well plate, and allowed to stand for 30 min. […]
To each well of a UV-Star µClear 96-well (655801, Greiner), 180 µL of Detection buffer (prepared by diluting, with 17.64 mL of distilled water, 180 µL of QUANTI-Blue buffer and 180 µL of QUANTI-Blue solution) was dispensed. […] The plate was covered and incubated in a CO2 incubator for 3 to 5 hours, and absorbance was measured (Envision 2104, PerkinElmer, 620 nm/bp 40 nm). Based on the absorbance, IC50 values of the peptide were calculated using software (Prism 9, GraphPad).

The target of a further experiment is T2, GDF-11 (Homo sapiens, UniProt O95390).
T2 construct: purchased R&D systems 1958-GD-G8/CF
T2 sequence (O95390 299-407): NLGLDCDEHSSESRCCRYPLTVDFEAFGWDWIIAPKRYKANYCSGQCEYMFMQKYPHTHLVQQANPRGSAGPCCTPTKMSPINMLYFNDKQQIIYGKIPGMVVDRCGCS
The experiment can be described thus: Reporter gene assay for myostatin signaling in HepG2 cell line, Evaluation Procedure (1), GDF-11 inhibition. It is filed as cell-based. The note with it: Method A: GDF-11 10 ng/mL; read-out: IC50 (Luciferase) GDF-11 HepG2. Put shortly:
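IC50 derived from One-Glo luciferase luminescence after 20–24 h at 37 °C. Peptides titrated 4-fold at 0.006–100 nmol/L against myostatin or 0.12–2000 nmol/L against GDF-11 in HepG2 cells carrying a transfected CAGA12-luciferase reporter, kept in 0.1% BSA EMEM.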
(In general: Reporter assays use an easily measured gene product as a stand-in for the process of interest.)

Starred links: 1 amine or outer side, 2 acyl side, 3 side chain; linkers in the order of their positions; H or OH if unused. Positions of bridges follow the written chain, without caps; N, C: chain ends. Non-standard residues stand in square brackets, D forms with d. Residues, ends and D or L forms follow the SMILES beside them. Phe(3-OCH2COOH) = N[C@@H](Cc1cccc(OCC(=O)O)c1)C(=O)O; Phe(4-COOH) = N[C@@H](Cc1ccc(C(=O)O)cc1)C(=O)O; Gly(N(CH2)3COOH) = O=C(O)CCCNCC(=O)O; X1 = CCCCCCC[C@H](N[*:1])C(=O)[*:2]; NMeF = CN[C@@H](Cc1ccccc1)C(=O)O; NMeA = CN[C@@H](C)C(=O)O

Take `CCCCCCC[C@@H]1NC(=O)[C@H](Cc2ccccc2)N(C)C(=O)[C@H](CCCNC(=N)N)NC(=O)[C@H](Cc2ccc(C(=O)O)cc2)NC(=O)[C@H](Cc2cccc(OCC(=O)O)c2)NC(=O)[C@H](C)N(C)C(=O)[C@H]([C@@H](C)CC)NC(=O)[C@H](Cc2ccccc2)N(C)C(=O)[C@H](Cc2ccc(O)cc2)NC(=O)[C@H](Cc2c[nH]c3ccccc23)NC(=O)[C@H](C)NC(=O)CN(CCCC(=O)O)C(=O)CSC[C@H](C(=O)O)NC(=O)[C@H](Cc2ccccc2)N(C)C(=O)[C@H](C)N(C)C1=O` [Myostatin_99_v145] ({CH2CO}-[Gly(N(CH2)3COOH)]AWY[NMeF]I[NMeA][Phe(3-OCH2COOH)][Phe(4-COOH)]R[NMeF][X1][NMeA][NMeF][dC]-OH; thioether N-15): the IC50 on activin A (read-out: IC50 (nmol/L) Activin A) is over 20000 nmol/L; at GDF-11, 0.414 µM. Also, the IC90 at activin A (read-out: IC90 (nmol/L) Activin A) is over 20000 nmol/L.
